# What was measured:
# Ptpn11_N SH2 domain [1] = target: T1, Ptpn11_N SH2 domain (Homo sapiens, UniProt Q06124); assay: Fluorescence polarization solution binding; details: Rhodamine B-labeled peptide, GST-SH2, Beacon 2000, read-out: Affinity (KD)
# T1 sequence (Q06124 6-102 limits assumed): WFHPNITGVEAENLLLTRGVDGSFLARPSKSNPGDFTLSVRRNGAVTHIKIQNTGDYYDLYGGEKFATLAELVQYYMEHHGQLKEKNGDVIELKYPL
# Text: To verify the binding results obtained from addressable peptide arrays we employed an orthogonal method of determining SH2 interactions with peptide ligands. We measured the dissociation constants of 60 binary SH2-peptide pairs in solution by fluorescence polarization (Table 2, Additional file 2: Figures S3A-C).
# Peptides were synthesized using FMOC-chemistry onto pre-loaded tenta-gel resins. Peptides were then labeled with Rhodamine B (Abbey Color) and then cleaved using trifluoroacetic acid. Peptides were lyophilized and then purified using a LC/MS (Agilent 2100). Dissociation constants were measured using the Beacon 2000 (Invitrogen) as previously described.
# Binding Affinities determined by Fluorescence Polarization. Rhodamine B-labeled peptides were mixed with varying concentrations of GST-tagged SH2 domains. Fluorescence polarization measurements were read on a Beacon 2000 (Invitrogen). The curves were fit to a Michaelis-Menten equation to calculate the dissociation constant, KD. […] (C) Affinity measurements that fell below the 2X mean intensity and were considered array negative on the SPOT array.
# [2] = tested on: Plcγ SH2 domain (N or C not specified); assay: SPOT peptide array; assay type: binding; details: GST-SH2 0.25 μM, membrane-bound peptide, 1 mM DTT, LiCor read-out
# Text: (§1) The use of addressable peptide arrays is a reproducible and semi-quantitative approach that has been extensively validated for studying protein interactions with peptide ligands. To investigate connections between SH2 domain proteins and their putative phosphorylated docking sites on cell surface receptors, we developed addressable arrays consisting of 192 phosphotyrosine peptides. This peptide set was assembled using 71 phosphotyrosine peptide motifs corresponding to all of the cytoplasmic tyrosine residues within the FGF receptors (FGFR1-4), insulin receptor (InsR) and IGF-1 receptor (IGF-1R) (Figure 1A). Activation of these receptors results in the phosphorylation of associated scaffold proteins, and so 75 phosphotyrosine peptides corresponding to a comprehensive list of tyrosine residues within insulin receptor substrates (IRS-1 and IRS-2) and fibroblast receptor substrates (FRS-2 and FRS-3) were included. In addition, 33 phosphotyrosine peptides were incorporated from the downstream signaling proteins PLC-γ1, p130Cas (BCAR1) and p62DOK1. […] These control peptides provide a reference and establish the empirical cut-off for designated binding interactions (Table 1). No discrimination was made against peptides on the basis of reported phosphorylation state in order to examine a diverse and unbiased set of motifs. The resulting set of 192 phosphotyrosine peptides and their corresponding position in the proteins of origin is noted in Additional file 1: Table S1. Addressable arrays were synthesized as membrane-bound 11-mer peptides using the SPOT synthesis technique. While the majority of SH2 domains recognize residues C-terminal to the phosphotyrosine in their cognate peptide ligands, additional contacts between SH2 domains and residues N-terminal to the phosphotyrosine are observed for the SH2 domain of Sh2d1a (SAP) and cannot be ruled out in other cases. Peptides were synthesized with six flanking residues C-terminal to the phosphotyrosine and four residues N-terminal to the phosphotyrosine.
# (§2) SH2 domains were arrayed as GST fusion proteins and detected using anti-GST primary antibodies and near-infrared labeled secondary antibodies. In an effort to present a dataset with minimal false positives, we chose an empirical cutoff based on the array average across all peptide spots to classify interactions (Figure 1A). In cases where the intensity of the signal for an individual SH2-domain binding event exceeded the mean intensity of all the peptides on the membrane by three-fold were scored as “array positives” [22]. Non-binding was judged in cases where the intensity of a spot was less than the mean intensity of all spots on the membrane and these were scored as “array negatives”. Peptides with signal intensities between 1X and 3X mean were scored as “indeterminate” and ascribed as neither array positive binding interactions nor array-negative non-binders. […] This signature may be indicative of promiscuity differences between phosphopeptides or there may be a subset of peptides which interact in a nonspecific fashion with either the GST fusion tag or one of the antibodies used for detection, resulting in false positives. Consistent with our goal of reducing the errors associated with identifying false-positives, we probed three separate arrays with three separate preps of the GST fusion tag alone. Potentially non-specificly interacting peptides (so-called ‘sticky’ peptides) were identified as any that bound to GST with above mean intensity in two out of three separate trials. This approach identifies any peptides which interact with GST or either of the recognition antibodies, a known confounding factor for downstream analysis. This conservative approach allows us to score many significant peptides as ‘binders’ which may have been indeterminate before when incorporating the ‘sticky’ peptides into the array average. […]
# Shb SH2 domain = Shb SH2 domain (Homo sapiens, UniProt Q15464); assay: SPOT peptide array; assay type: binding; details: GST-SH2 0.25 μM
# Chain of Shb SH2 domain (Q15464 410-504 limits assumed): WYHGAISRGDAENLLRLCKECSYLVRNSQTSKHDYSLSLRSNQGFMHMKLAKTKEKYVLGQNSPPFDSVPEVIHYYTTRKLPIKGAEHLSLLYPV
# Text: as §1, §2
# Plcγ-C SH2 domain = assay: SPOT peptide array; assay type: binding; details: spot intensity as factor of array mean; GST-SH2 0.25 μM
# Text: as §1, §2
# Plcγ-N SH2 domain = assay: SPOT peptide array; assay type: binding; details: spot intensity as factor of array mean; GST-SH2 0.25 μM
# Text: as §1, §2
# Crk SH2 domain = Crk SH2 domain (Homo sapiens, UniProt P46108); set-up: method as in earlier work; details: SH2 protein microarray; N.B. = non binding; read-out: Protein Microarray (Macbeath) – KD; cited from earlier work
# Chain of Crk SH2 domain (P46108 13-118 limits assumed): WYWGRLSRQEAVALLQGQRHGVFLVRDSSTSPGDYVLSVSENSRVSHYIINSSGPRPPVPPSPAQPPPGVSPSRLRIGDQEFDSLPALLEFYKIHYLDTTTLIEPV
# CrkL SH2 domain = CrkL SH2 domain (Homo sapiens, UniProt P46109); set-up: method as in earlier work; details: SH2 protein microarray; N.B. = non binding; read-out: Protein Microarray (Macbeath) – KD; cited from earlier work
# Chain of CrkL SH2 domain (P46109 14-102 limits assumed): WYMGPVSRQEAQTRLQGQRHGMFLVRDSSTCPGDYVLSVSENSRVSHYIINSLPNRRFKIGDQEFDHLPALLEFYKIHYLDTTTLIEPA
# Abl2 SH2 domain = target: T2, Abl2 SH2 domain (Homo sapiens, UniProt P42684); set-up: method as in earlier work; details: SH2 protein microarray; N.B. = non binding; read-out: Protein Microarray (Macbeath) – KD; cited from earlier work
# T2 sequence (P42684 173-263 limits assumed): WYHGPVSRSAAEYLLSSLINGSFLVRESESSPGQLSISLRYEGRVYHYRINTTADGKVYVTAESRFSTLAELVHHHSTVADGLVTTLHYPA
# Ptpn11_N SH2 domain [3] = target: T1, Ptpn11_N SH2 domain; set-up: method as in 5 sources, one per row (each row's own in cited_ref): ref [107] = [107]; PMID 8144631; Case RD Piccione E Wolf G Benett AM Lechleider RJ Neel BG Shoelson SE SH-PTP2/Syp SH2 domain binding specificity is defined by direct interactions with platelet-derived growth factor beta-receptor, ep ||| ref [107, 108] = [107]; PMID 8144631; Case RD Piccione E Wolf G Benett AM Lechleider RJ Neel BG Shoelson SE SH-PTP2/Syp SH2 domain binding specificity is defined by direct interactions with platelet-derived growth factor beta-receptor, ep || [108]; PMID 7504175; doi:10.1128/mcb.13.12.7418-7428.1993; Sun XJ Crimmins DL Myers MG Jr Miralpeix M White MF Pleiotropic insulin signals are engaged by multisite phosphorylation of IRS-1 Mol Cell Biol 1993 13 7418 7428 7504175 10.1128/mcb.13.12.7418-7428.19 ||| ref [95, 108, 110] = [95]; PMID 9422724; doi:10.1074/jbc.273.2.729; Ottinger EA Botfield MC Shoelson SE Tandem SH2 domains confer high specificity in tyrosine kinase signaling J Biol Chem 1998 273 729 735 9422724 10.1074/jbc.273.2.729 || [108]; PMID 7504175; doi:10.1128/mcb.13.12.7418-7428.1993; Sun XJ Crimmins DL Myers MG Jr Miralpeix M White MF Pleiotropic insulin signals are engaged by multisite phosphorylation of IRS-1 Mol Cell Biol 1993 13 7418 7428 7504175 10.1128/mcb.13.12.7418-7428.19 || [110]; PMID 9756938; doi:10.1074/jbc.273.41.26908; Myers MG Jr Mendez R Shi P Pierce JH Rhoads R White MF The COOH-terminal tyrosine phosphorylation sites on IRS-1 bind SHP-2 and negatively regulate insulin signaling J Biol Chem 1998 273 26908 26914 9 ||| ref 107 (IRS-1 Y896 also 108) ||| ref 95, 108, 110 = [95]; PMID 9422724; doi:10.1074/jbc.273.2.729; Ottinger EA Botfield MC Shoelson SE Tandem SH2 domains confer high specificity in tyrosine kinase signaling J Biol Chem 1998 273 729 735 9422724 10.1074/jbc.273.2.729 || [108]; PMID 7504175; doi:10.1128/mcb.13.12.7418-7428.1993; Sun XJ Crimmins DL Myers MG Jr Miralpeix M White MF Pleiotropic insulin signals are engaged by multisite phosphorylation of IRS-1 Mol Cell Biol 1993 13 7418 7428 7504175 10.1128/mcb.13.12.7418-7428.19 || [110]; PMID 9756938; doi:10.1074/jbc.273.41.26908; Myers MG Jr Mendez R Shi P Pierce JH Rhoads R White MF The COOH-terminal tyrosine phosphorylation sites on IRS-1 bind SHP-2 and negatively regulate insulin signaling J Biol Chem 1998 273 26908 26914 9; details: ref 107 (IRS-1 Y896 also 108); read-out: Relative affinity (IC50); cited from earlier work
# panel of 50 SH2 domains = assay: SPOT peptide array probed with each of 50 GST-SH2 domains; assay type: binding; details: SH2 domains with intensity >3X array mean; GST-SH2 0.25 μM, 1 mM DTT
# Procedure, shortened: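 Membrane SPOT arrays of 192 phosphotyrosine 11-mer peptides (four residues N-terminal, six C-terminal to pTyr) probed with GST-SH2 fusions, detected by anti-GST plus near-infrared secondary antibody. Spots >3-fold array mean scored positive, below mean negative, 1–3× indeterminate; peptides binding GST alone above mean in two of three trials flagged as sticky.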
# PI3K1_N SH2 domain [4] = target: T3, PI3K1_N SH2 domain (Homo sapiens, UniProt P27986); set-up: method as in PMID 8384875; details: cited from earlier work
# T3 sequence (P27986 333-428 limits assumed): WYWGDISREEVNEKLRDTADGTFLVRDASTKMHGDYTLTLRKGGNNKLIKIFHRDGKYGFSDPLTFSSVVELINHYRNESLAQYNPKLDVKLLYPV
# PI3K1_N SH2 domain [5] = target: T3, PI3K1_N SH2 domain; assay: SPOT peptide array; assay type: binding; details: GST-SH2 0.25 μM, membrane-bound peptide, 1 mM DTT, LiCor read-out
# Text: as §1, §2
# Ptpn11_C SH2 domain = assay: SPOT peptide array; assay type: binding; details: GST-SH2 0.25 μM
# Text: as §1, §2
# Fyn SH2 domain = assay: SPOT peptide array; assay type: binding; details: GST-SH2 0.25 μM
# Text: as §1, §2
# Ptpn11_N SH2 domain [6] = target: T1, Ptpn11_N SH2 domain; assay: SPOT peptide array; assay type: binding; details: GST-SH2 0.25 μM
# Text: as §1, §2
# [7] = membrane-bound peptide, 1 mM DTT, LiCor read-out
# [8] = spot intensity as factor of array mean
molecule,measurement,setting,value
CC(C)[C@H](NC(=O)[C@H](CC(=O)O)NC(=O)[C@H](CCC(=O)O)NC(=O)[C@H](C)N)C(=O)N[C@@H](Cc1ccc(OP(=O)(O)O)cc1)C(=O)N[C@@H](CC(=O)O)C(=O)N[C@H](C(=O)N1CCC[C@H]1C(=O)N1CCC[C@H]1C(=O)N1CCC[C@H]1C(=O)N[C@@H](C)C(=O)O)C(C)C [AEDVpYDVPPPA],Kd,Ptpn11_N SH2 domain [1],> 50 µM
"SNQEpYLDLSMP [11-mer phosphotyrosine peptide, FGFR1 (Y766)]",Array positive,[2],No (Peptide spots with average intensity values between 1X-3X the array mean were defined as ‘indeterminate’. Those with intensities below 1X mean were defined as array negative)
same,Array positive,Shb SH2 domain; [7],No (Peptide spots with average intensity values between 1X-3X the array mean were defined as ‘indeterminate’. Those with intensities below 1X mean were defined as array negative)
same,Peptide array intensity (X mean),Shb SH2 domain; [8],0.45 X Mean
same,Peptide array intensity (X mean),Plcγ-C SH2 domain,0.21 X Mean
same,Peptide array intensity (X mean),Plcγ-N SH2 domain,0.52 X Mean
SSKDLVSCApYQVARGMED (SSKDLVSCAYQVARGMED),Kd,Crk SH2 domain,0.26 µM
same,Kd,CrkL SH2 domain,0.24 µM
same,Kd,Abl2 SH2 domain,0.012 µM
ARDIHHIDYpYKKTTNGRD (ARDIHHIDYYKKTTNGRD),Kd,Crk SH2 domain,1.11 µM
"SIEEpYTEMMPA (SIEEYTEMMPA) [11-mer phosphotyrosine peptide, IRS-1 (Y551)]",IC50,Ptpn11_N SH2 domain [3],11 ± 1 µM
"VSEEYLDLRLT [11-mer peptide, FGFR4 (754)]",Other SH2 domains bound (additional array-positive SH2 domains),panel of 50 SH2 domains,SHD
same,Array positive,[2],No (Peptide spots with average intensity values between 1X-3X the array mean were defined as ‘indeterminate’. Those with intensities below 1X mean were defined as array negative)
"DLSApYASISFQ (DLSAYASISFQ) [11-mer phosphotyrosine peptide, IRS-1 (Y1229)]",IC50,Ptpn11_N SH2 domain [3],25 ± 4.2 µM
"GSGDpYMPMSPK [11-mer phosphotyrosine peptide, printed as IRS-1 (Y612); footnote says Y632]",Relative affinity (ID50),PI3K1_N SH2 domain [4],ID50 = 0.7-1.1 μM
same,Array positive,PI3K1_N SH2 domain [5],No (Peptide spots with average intensity values between 1X-3X the array mean were defined as ‘indeterminate’. Those with intensities below 1X mean were defined as array negative)
"DLSApYASISFQ [11-mer phosphotyrosine peptide, IRS-1 (Y1229)]",Array positive,Ptpn11_C SH2 domain; [7],No (Peptide spots with average intensity values between 1X-3X the array mean were defined as ‘indeterminate’. Those with intensities below 1X mean were defined as array negative)
same,Peptide array intensity (X mean),Ptpn11_C SH2 domain; [8],1.59 X Mean
same,Array positive,Fyn SH2 domain; [7],No (Peptide spots with average intensity values between 1X-3X the array mean were defined as ‘indeterminate’. Those with intensities below 1X mean were defined as array negative)
same,Peptide array intensity (X mean),Fyn SH2 domain; [8],0.48 X Mean
same,Array positive,Ptpn11_N SH2 domain [6]; [7],No (Peptide spots with average intensity values between 1X-3X the array mean were defined as ‘indeterminate’. Those with intensities below 1X mean were defined as array negative)
same,Peptide array intensity (X mean),Ptpn11_N SH2 domain [6]; [8],2.78 X Mean
"DPNGpYMMMSPS (DPNGYMMMSPS) [11-mer phosphotyrosine peptide, IRS-1 (Y662)]",IC50,Ptpn11_N SH2 domain [3],96 ± 13 µM
"ELSNpYICMGGK (ELSNYICMGGK) [11-mer phosphotyrosine peptide, IRS-1 (Y465)]",IC50,Ptpn11_N SH2 domain [3],48 ± 16 µM

# From publication PMC3514216, “SRC Homology 2 Domain Binding Sites in Insulin, IGF-1 and FGF receptor mediated signaling networks reveal an extensive potential interactome” (Cell Communication and Signaling : CCS, 2012)
